Source: patent US20210275545A1, “METHOD OF TREATING CANCER PREFERABLY CHARACTERIZED BY EXPRESSION OF A FUSION PROTEIN COMPRISING A MEMBER OF THE E-TWENTY-SIX FAMILY BY ADMINISTERING AN AGENT THAT INHIBITS THE SYNTHESIS AND/OR ACTIVITY OF CORTISOL” (Yeda Research and Development Co. Ltd., priority 2018, published 2021)

Legend:
[1] = system: RD-ES xenograft; assay: RD-ES xenograft tumor growth and KI67 staining; assay type: in vivo, SCID mice; conditions: 1 mg/kg daily
Text: FIGS. 6A-E. A GR antagonist and a cortisol-lowering drug impede growth of human xenograft models of Ewing's sarcoma. (A) RD-ES cells (2×10^6) were implanted subcutaneously in the right flank of SCID mice. Once tumors reached an approximate size of 150 mm^3, animals were randomized into three groups (n=10). […] The means of tumor volumes (+SEM) are shown. […] (B) Shown are representative images of immunofluorescent staining for KI67 in paraffin-embedded sections of tumors from A, using an antibody against KI67. Scale bars, 100 μm. Also shown is the scatter plot depicting quantification of KI67 staining in randomly selected 4 fields of a representative tumor from each group. […] (C and D) A673 cells (2×10^6) were implanted in female SCID mice. Once tumors reached the size of 150 mm^3, animals were randomized into two groups (n=9). Each group was daily treated with either vehicle, or Metyrapone (25 mg/kg) and tumorigenic growth was monitored. Actual tumor volumes (±SEM) are presented. Also shown are tumors harvested from each group of animals; **p<0.001. […] Luminescence was quantified and presented in a bar graph.
ES animal model studies: All animal experiments were approved by the Weizmann Institute's Animal Care and Use Committee. […] Tumor growth was monitored once every 3 days using a caliper. […]

[2] = system: CHLA9, A673 and RD-ES cells; assay: MTT cell viability assay, three ES lines; assay type: cell-based; conditions: increasing concentrations, 24 hours
Description: (§1) FIGS. 12A-F: Inhibition of GR activity decreases growth and survival of Ewing's sarcoma cells. […] (B) Increasing concentrations of D06, a non-steroidal antagonist of GR [54], were incubated with A673 cells as in A and the MTT assay was performed in triplicates. *, p<0.05. […] Note that the abundance of the endogenous form of FLI1 is much weaker than that of EWS-FLI1. […] MTT assays were performed after 48 hours of treatment. The assay was repeated twice in quadruplets. **, p<0.01, ***, p<0.001. (E) A673 cells were seeded in 100-mm dishes. […] Shown are results of an apoptosis assay performed using an annexinV/7-AAD kit (BioLegend, Inc.). Quantification of the fractions of early and late apoptotic cells is shown in bar plots. The experiment was repeated twice. (F) The indicated ES cells were sparsely seeded in 6-well plates. […] Ten days later, cells were fixed and stained with crystal violet to visualize emerging colonies. Photos are shown along with bar plots showing the quantification of colonies in 5 non-overlapping microscope fields. The experiment was repeated twice. *, p≤0.05; **, p≤0.001.
According to recent reports, the EWS-FLI1 fusion promotes cell cycle progression and inhibits apoptosis. […] Next, siRNA specific to the FLI1 region of the fusion (FIG. 12C) were analyzed in A673 cells. […]

[3] = biological target: GR and ETV4 (Homo sapiens, UniProt P04150); conditions: combination of DEX (1 μM) and RU486 (1 μM)
Sequence of GR and ETV4 (P04150 whole entry, the tested form may be a part): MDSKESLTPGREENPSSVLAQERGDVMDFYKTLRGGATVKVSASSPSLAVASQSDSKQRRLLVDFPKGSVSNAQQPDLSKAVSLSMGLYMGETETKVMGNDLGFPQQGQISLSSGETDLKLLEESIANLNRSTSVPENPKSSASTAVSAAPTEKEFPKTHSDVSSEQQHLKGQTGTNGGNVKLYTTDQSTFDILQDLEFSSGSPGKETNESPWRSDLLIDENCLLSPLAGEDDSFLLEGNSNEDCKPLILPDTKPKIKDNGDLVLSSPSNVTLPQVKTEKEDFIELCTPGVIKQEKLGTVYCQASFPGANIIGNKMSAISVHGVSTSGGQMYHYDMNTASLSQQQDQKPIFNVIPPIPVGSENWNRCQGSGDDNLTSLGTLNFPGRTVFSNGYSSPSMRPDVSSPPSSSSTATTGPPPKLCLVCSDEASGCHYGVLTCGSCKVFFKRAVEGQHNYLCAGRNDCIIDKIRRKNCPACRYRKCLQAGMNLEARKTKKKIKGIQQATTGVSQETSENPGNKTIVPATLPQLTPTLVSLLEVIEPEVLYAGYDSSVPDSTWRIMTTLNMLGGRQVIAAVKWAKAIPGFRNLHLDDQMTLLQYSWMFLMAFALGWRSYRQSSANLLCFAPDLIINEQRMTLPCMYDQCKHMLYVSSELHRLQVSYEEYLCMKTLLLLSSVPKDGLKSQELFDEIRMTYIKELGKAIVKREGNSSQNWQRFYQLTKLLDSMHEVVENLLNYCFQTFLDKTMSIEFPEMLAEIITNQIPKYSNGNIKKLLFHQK
Description: (§2) (A) The scheme presents the full length Gaussia luciferase protein, along with either the amino-terminal segment (Gluc1), which was fused to an ETS family transcription factor, or the carboxyl terminal segment (Gluc2), which was fused to GR. Amino acid numbers are indicated. cDNAs encoding most members of the ETS family (16 members altogether) were cloned downstream to Gluc1. […] (B) HEK-293T cells (6×10^3) were seeded in 96-well plates. On the next day, cells were transfected with combinations of the Gluc1 plasmid, encoding a fused ETS family member, and the Gluc2 plasmid encoding a fused full-length GR. […] Cells were then lysed and luminescence was determined in biological triplicates. […] (D and E) HEK-293T cells were seeded in 100-mm dishes. Once they reached sub-maximal density (70%), cells were starved overnight for serum factors. […] Cell extracts were then processed for co-immunoprecipitation assays, in which the endogenous FLI1 or ERG protein was immunoprecipitated using a specific antibody, and immunoblotting was performed using an antibody against GR. EB, empty beads; C, solvent control. Images shown are representative of three biological replicates.
(§3) Protein-fragment complementation assays (PCA): PCA was performed as previously described.

[4] = biological target: GR and PU.1 (Homo sapiens, UniProt P04150); conditions: combination of DEX (1 μM) and RU486 (1 μM)
Sequence of GR and PU.1 (P04150 whole entry): as the sequence (P04150 whole entry, the tested form may be a part) above
Description: as §2, §3

[5] = system: A673 cells; assay: Apoptosis assay (annexinV/7-AAD); assay type: cell-based; conditions: RU486 10 or 20 μM, 48 hours
Description: as §1, with “[…],” for “D06,”, “p≤0.001. Apoptosis assays: Assays were performed using the FITC Annexin V Apoptosis Detection Kit with 7-AAD (from BioLegend) and analyzed using a BD FACSAria Fusion instrument controlled by BD FACS Diva software v8.0.1 (BD Biosciences).” for “p≤0.001.”

## CC#C[C@]1(O)CC[C@H]2[C@@H]3CCC4=CC(=O)CCC4=C3[C@@H](c3ccc(N(C)C)cc3)C[C@@]21C [RU486, Mifepristone]
[1]
  tumor growth: significantly slower tumor growth
[1]; relative to control group
  KI67 staining of tumor sections (proliferation): slower proliferation rates
[2]
  survival of ES cell lines (MTT): dose-dependent reduction
[3]
  effect on DEX-induced physical interaction between GR and ETV4 (PCA): only a trend was noted
[4]
  effect on DEX-induced physical interaction between GR and PU.1 (PCA): significantly inhibited
[5]; DEX 1 μM
  early apoptosis (fraction of cells): increased
[5]
  late apoptosis (fraction of cells): increased
